Test results: patent publication US20150191469A1, “COMPOUNDS AND METHODS FOR TREATING HIV” (priority 2012, published 2015)

What follows are compounds tested on HIV (assay: MT4 assay: antiviral HIV activity (cell protection, cell titer glo readout at 96 hours)). Details: Human immunodeficiency virus 1, MT4, 96 h, MT4 cells, cell titer glo readout at 96 hours, 10 point dose response; read-out: HIV MT4 Assay IC50.
Type: cell-based
Procedure, shortened: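 MT-4 cells infected with HIV, with inhibition readout by CellTiter-Glo luminescence at 96 h relative to no-compound control. Cytotoxicity measured in parallel under the same conditions. IC50 from a 10-point, 3-4-fold dilution series spanning >1000-fold, fitted with a four-parameter logistic equation.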
Work on `COCC1CCCN1C1CCN(c2nnc(-c3cc4c(-c5cc(F)c6c(c5C)CCCO6)c([C@H](OC(C)(C)C)C(=O)O)c(C)nc4n3C)o2)CC1` (stereo partly drawn) [Example 339] yielded an IC50 of 28.8 nM.
`Cc1nc2c(cc(-c3nnc(N4CCN(CCN5CCOCC5)CC4)o3)n2C)c(-c2cc(F)c3c(c2C)CCCO3)c1[C@H](OC(C)(C)C)C(=O)O` [Example 340] showed an IC50 of 43.2 nM.
For `Cc1nc2c(cc(-c3nnc(NCCN4CCN(C)CC4)o3)n2C)c(-c2cc(F)c3c(c2C)CCCO3)c1[C@H](OC(C)(C)C)C(=O)O` [Example 341], the IC50 was 1250 nM.
With `Cc1nc2c(cc(-c3nnc(N4CCN(C(C)C)CC4)o3)n2C)c(-c2cc(F)c3c(c2C)CCCO3)c1[C@H](OC(C)(C)C)C(=O)O` [Example 342] the IC50 was 5.4 nM.
With `Cc1nc2c(cc(-c3nnc(N(C)CCN4CCOCC4)o3)n2C)c(-c2cc(F)c3c(c2C)CCCO3)c1[C@H](OC(C)(C)C)C(=O)O` [Example 343] the IC50 was 10.6 nM.
`Cc1nc2c(cc(-c3nnc(N4CCC(N5CCCC5)CC4)o3)n2C)c(-c2cc(F)c3c(c2C)CCCO3)c1[C@H](OC(C)(C)C)C(=O)O` [Example 344] was tested, and the IC50 was 130 nM.
`Cc1nc2c(cc(-c3nnc(N4CCCCC4)o3)n2C)c(-c2cc(F)c3c(c2C)CCCO3)c1[C@H](OC(C)(C)C)C(=O)O` [Example 345] showed an IC50 of 2.7 nM.
For `Cc1nc2c(cc(-c3nnc(N4CCC(F)CC4)o3)n2C)c(-c2cc(F)c3c(c2C)CCCO3)c1[C@H](OC(C)(C)C)C(=O)O` [Example 346], the IC50 was 2.7 nM.
With `Cc1nc2c(cc(-c3nnc(N4CCN(C5CCOCC5)[C@H](C)C4)o3)n2C)c(-c2cc(F)c3c(c2C)CCCO3)c1[C@H](OC(C)(C)C)C(=O)O` [Example 347] the IC50 was 6.3 nM.
`Cc1nc2c(cc(-c3nnc(N4CCN5CCC[C@H]5C4)o3)n2C)c(-c2cc(F)c3c(c2C)CCCO3)c1[C@H](OC(C)(C)C)C(=O)O` [Example 348] was tested, and the IC50 was 3.1 nM.
Work on `COC[C@@H]1CCCN1c1nnc(-c2cc3c(-c4cc(F)c5c(c4C)CCCO5)c([C@H](OC(C)(C)C)C(=O)O)c(C)nc3n2C)o1` [Example 349] yielded an IC50 of 3 nM.
Compound `Cc1nc2c(cc(-c3nnc(N4CCCOCC4)o3)n2C)c(-c2cc(F)c3c(c2C)CCCO3)c1[C@H](OC(C)(C)C)C(=O)O` [Example 350] has an IC50 of 11.9 nM.
`Cc1nc2c(cc(-c3nnc(N4C[C@H](C)O[C@@H](C)C4)o3)n2C)c(-c2cc(F)c3c(c2C)CCCO3)c1[C@H](OC(C)(C)C)C(=O)O` [Example 351] gave an IC50 of 2 nM.
`Cc1nc2c(cc(-c3nnc(N4CCOC(C)(C)C4)o3)n2C)c(-c2cc(F)c3c(c2C)CCCO3)c1[C@H](OC(C)(C)C)C(=O)O` [Example 352] showed an IC50 of 5.5 nM.
With `Cc1nc2c(cc(-c3nnc(N4CC5CCC(C4)O5)o3)n2C)c(-c2cc(F)c3c(c2C)CCCO3)c1[C@H](OC(C)(C)C)C(=O)O` [Example 353] the IC50 was 7 nM.
In the case of `Cc1nc2c(cc(-c3cc(N4CCN(C5CCOCC5)CC4)ncn3)n2C)c(-c2cc(F)c3c(c2C)CCCO3)c1[C@H](OC(C)(C)C)C(=O)O` [Example 359], the IC50 is reported as 4.1 nM.
For `Cc1nc2c(cc(-c3cncc(N4CCN(C5CCOCC5)CC4)n3)n2C)c(-c2cc(F)c3c(c2C)CCCO3)c1[C@H](OC(C)(C)C)C(=O)O` [Example 360], the IC50 was 30.8 nM.
`Cc1nc2c(cc(-c3cncc(N4CCN(C5CCOCC5)CC4)c3)n2C)c(-c2cc(F)c3c(c2C)CCCO3)c1[C@H](OC(C)(C)C)C(=O)O` [Example 361] showed an IC50 of 14.7 nM.
In the case of `Cc1nc2c(cc(-c3cc(N4CCN(C5CCOCC5)CC4)ccn3)n2C)c(-c2cc(F)c3c(c2C)CCCO3)c1[C@H](OC(C)(C)C)C(=O)O` [Example 362], the IC50 is reported as 5.8 nM.
In the case of `Cc1nc2c(cc(-c3ccnc(N4CCN(C5CCOCC5)CC4)n3)n2C)c(-c2cc(F)c3c(c2C)CCCO3)c1[C@H](OC(C)(C)C)C(=O)O` [Example 363], the IC50 is reported as 9.9 nM.
Work on `Cc1nc2c(cc(-c3cc(NCCN4CCOCC4)ncn3)n2C)c(-c2cc(F)c3c(c2C)CCCO3)c1[C@H](OC(C)(C)C)C(=O)O` [Example 365] yielded an IC50 of 86.7 nM.
For `Cc1nc2c(cc(-c3cc(NCCC(C)(C)C)ncn3)n2C)c(-c2cc(F)c3c(c2C)CCCO3)c1[C@H](OC(C)(C)C)C(=O)O` [Example 366], the IC50 was 15.2 nM.
Work on `Cc1nc2c(cc(-c3nsc(N4CCNCC4)n3)n2C)c(-c2cc(F)c3c(c2C)CCCO3)c1[C@H](OC(C)(C)C)C(=O)O` [Example 367] yielded an IC50 of 17.5 nM.
For `Cc1nc2c(cc(-c3nc(N4CCCCC4)ns3)n2C)c(-c2cc(F)c3c(c2C)CCCO3)c1[C@H](OC(C)(C)C)C(=O)O` [Example 368], the IC50 was 39.5 nM.
`Cc1nc2c(cc(-c3nc(N4CCN(C)CC4)ns3)n2C)c(-c2cc(F)c3c(c2C)CCCO3)c1[C@H](OC(C)(C)C)C(=O)O` [Example 369] gave an IC50 of 11.3 nM.
`Cc1nc2c(cc(-c3nsc(N4CCCCC4)n3)n2C)c(-c2cc(F)c3c(c2C)CCCO3)c1[C@H](OC(C)(C)C)C(=O)O` [Example 370] showed an IC50 of 9.5 nM.
`Cc1nc2c(cc(-c3nsc(N4CCN(C)CC4)n3)n2C)c(-c2cc(F)c3c(c2C)CCCO3)c1[C@H](OC(C)(C)C)C(=O)O` [Example 371] gave an IC50 of 8.4 nM.
With `Cc1nc2c(cc(-c3nc(N4CCC(C)CC4)ns3)n2C)c(-c2cc(F)c3c(c2C)CCCO3)c1[C@H](OC(C)(C)C)C(=O)O` [Example 372] the IC50 was 36.2 nM.
Work on `Cc1nc2c(cc(-c3nsc(N4CCN(C5CC5)CC4)n3)n2C)c(-c2cc(F)c3c(c2C)CCCO3)c1[C@H](OC(C)(C)C)C(=O)O` [Example 373] yielded an IC50 of 5.2 nM.
`Cc1nc2c(cc(-c3nsc(N4CCC(C)CC4)n3)n2C)c(-c2cc(F)c3c(c2C)CCCO3)c1[C@H](OC(C)(C)C)C(=O)O` [Example 374] gave an IC50 of 10.8 nM.
With `Cc1nc2c(cc(-c3nsc(N4CCN(C5CCOCC5)CC4)n3)n2C)c(-c2cc(F)c3c(c2C)CCCO3)c1[C@H](OC(C)(C)C)C(=O)O` [Example 375] the IC50 was 1.5 nM.
In the case of `Cc1nc2c(cc(-c3nnc(N4CCN(C5CCOCC5)CC4)s3)n2C)c(-c2cc(F)c3c(c2C)CCCO3)c1[C@H](OC(C)(C)C)C(=O)O` [Example 376], the IC50 is reported as 14.4 nM.
With `Cc1nc2c(cc(-c3nc(N4CCC5(CC4)OCCO5)ns3)n2C)c(-c2cc(F)c3c(c2C)CCCO3)c1[C@H](OC(C)(C)C)C(=O)O` [Example 377] the IC50 was 5.9 nM.
Compound `Cc1nc2c(cc(-c3nc(N4CCN(C5CCOCC5)C[C@H]4C)ns3)n2C)c(-c2cc(F)c3c(c2C)CCCO3)c1[C@H](OC(C)(C)C)C(=O)O` [Example 378] has an IC50 of 4.1 nM.
For `Cc1nc2c(cc(-c3nc(N4CCC(N5CCOCC5)CC4)ns3)n2C)c(-c2cc(F)c3c(c2C)CCCO3)c1[C@H](OC(C)(C)C)C(=O)O` [Example 380], the IC50 was 1.6 nM.
Compound `Cc1nc2c(cc(-c3nc(N4CCN5CCC[C@@H]5C4)ns3)n2C)c(-c2cc(F)c3c(c2C)CCCO3)c1[C@H](OC(C)(C)C)C(=O)O` [Example 381] has an IC50 of 2.7 nM.
With `Cc1nc2c(cc(-c3nc(N4CCN5CCC[C@H]5C4)ns3)n2C)c(-c2cc(F)c3c(c2C)CCCO3)c1[C@H](OC(C)(C)C)C(=O)O` [Example 383] the IC50 was 4.1 nM.
`Cc1nc2c(cc(-c3nc(N4CCN(C(=O)N5CCCCC5)CC4)ns3)n2C)c(-c2cc(F)c3c(c2C)CCCO3)c1[C@H](OC(C)(C)C)C(=O)O` [Example 384] gave an IC50 of 5.1 nM.
Work on `Cc1nc2c(cc(-c3nc(N4CCN(C5CC5)CC4)ns3)n2C)c(-c2cc(F)c3c(c2C)CCCO3)c1[C@H](OC(C)(C)C)C(=O)O` [Example 385] yielded an IC50 of 10 nM.
`Cc1nc2c(cc(-c3nc(N4CCN(CC5CC5)CC4)ns3)n2C)c(-c2cc(F)c3c(c2C)CCCO3)c1[C@H](OC(C)(C)C)C(=O)O` [Example 386] showed an IC50 of 5.9 nM.
Compound `Cc1nc2c(cc(-c3nc(N4CCC(N5CCCCC5)CC4)ns3)n2C)c(-c2cc(F)c3c(c2C)CCCO3)c1[C@H](OC(C)(C)C)C(=O)O` [Example 387] has an IC50 of 6.9 nM.
Work on `Cc1nc2c(cc(-c3nc(N4CCN(C(=O)N5CCOCC5)CC4)ns3)n2C)c(-c2cc(F)c3c(c2C)CCCO3)c1[C@H](OC(C)(C)C)C(=O)O` [Example 388] yielded an IC50 of 9.3 nM.
Compound `Cc1nc2c(cc(-c3nc(N4CCC(N5CCN(C)CC5)CC4)ns3)n2C)c(-c2cc(F)c3c(c2C)CCCO3)c1[C@H](OC(C)(C)C)C(=O)O` [Example 389] has an IC50 of 5.6 nM.
Compound `Cc1nc2c(cc(-c3nc(N4CCN(CC5CCOCC5)CC4)ns3)n2C)c(-c2cc(F)c3c(c2C)CCCO3)c1[C@H](OC(C)(C)C)C(=O)O` [Example 390] has an IC50 of 5.4 nM.
`Cc1nc2c(cc(-c3nc(N4CCN(C(=O)C5CCOCC5)CC4)ns3)n2C)c(-c2cc(F)c3c(c2C)CCCO3)c1[C@H](OC(C)(C)C)C(=O)O` [Example 391] was tested, and the IC50 was 14.2 nM.
In the case of `Cc1nc2c(cc(-c3nc(N4CCN(S(=O)(=O)N5CCOCC5)CC4)ns3)n2C)c(-c2cc(F)c3c(c2C)CCCO3)c1[C@H](OC(C)(C)C)C(=O)O` [Example 392], the IC50 is reported as 4.9 nM.
Compound `Cc1nc2c(cc(-c3nc(N4CCN(S(=O)(=O)C5CCOCC5)CC4)ns3)n2C)c(-c2cc(F)c3c(c2C)CCCO3)c1[C@H](OC(C)(C)C)C(=O)O` [Example 393] has an IC50 of 4.2 nM.
Compound `Cc1nc2c(cc(-c3nc(N4CCN(S(=O)(=O)N5CCCCC5)CC4)ns3)n2C)c(-c2cc(F)c3c(c2C)CCCO3)c1[C@H](OC(C)(C)C)C(=O)O` [Example 394] has an IC50 of 16.4 nM.
`COC1CCN(c2nsc(-c3cc4c(-c5cc(F)c6c(c5C)CCCO6)c([C@H](OC(C)(C)C)C(=O)O)c(C)nc4n3C)n2)CC1` [Example 395] was tested, and the IC50 was 13.1 nM.
In the case of `Cc1nc2c(cc(-c3nc(N4CCC(N(C)C)CC4)ns3)n2C)c(-c2cc(F)c3c(c2C)CCCO3)c1[C@H](OC(C)(C)C)C(=O)O` [Example 396], the IC50 is reported as 15.5 nM.
Compound `Cc1nc2c(cc(-c3nc(N4CCCN(C)CC4)ns3)n2C)c(-c2cc(F)c3c(c2C)CCCO3)c1[C@H](OC(C)(C)C)C(=O)O` [Example 398] has an IC50 of 13.6 nM.
In the case of `Cc1nc2c(cc(-c3nc(N4CCC(F)CC4)ns3)n2C)c(-c2cc(F)c3c(c2C)CCCO3)c1[C@H](OC(C)(C)C)C(=O)O` [Example 399], the IC50 is reported as 28.7 nM.
In the case of `Cc1nc2c(cc(-c3nc(N4CCN(C(C)C)CC4)ns3)n2C)c(-c2cc(F)c3c(c2C)CCCO3)c1[C@H](OC(C)(C)C)C(=O)O` [Example 400], the IC50 is reported as 6.3 nM.

Same assay, conditions: MT4 cells, cell titer glo readout at 96 hours, 10 point dose response; read-out: HIV MT4 Assay IC50
`Cc1nc2c(cc(-c3nc(N4CCN(C5CCOCC5)CC4)ns3)n2C)c(-c2cc(F)c3c(c2C)CCCO3)c1[C@H](OC(C)(C)C)C(=O)O` [Example 379] showed an IC50 of 208 nM.
